# Laboratory results published in PubChem BioAssay (NCI).
#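 Cultured in 96-well plates, cells were exposed to test compound for 48 hours across five concentrations. TGI marks complete inhibition of growth.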
# Columns and labels:
# Experiment in all cases: DTP human tumour cell line panel, 48 h
# 786-0 renal = tested on: 786-0 renal
# A549 NSCLC = tested on: A549 NSCLC
# ACHN renal = tested on: ACHN renal
# BT-549 breast = tested on: BT-549 breast
# CAKI-1 renal = tested on: CAKI-1 renal
# CCRF-CEM leukemia = tested on: CCRF-CEM leukemia
# COLO 205 colon = tested on: COLO 205 colon
# DU-145 prostate = tested on: DU-145 prostate
# EKVX NSCLC = tested on: EKVX NSCLC
# HCC-2998 colon = tested on: HCC-2998 colon
# HCT-116 colon = tested on: HCT-116 colon
# HCT-15 colon = tested on: HCT-15 colon
# HL-60(TB) leukemia = tested on: HL-60(TB) leukemia
# HOP-62 NSCLC = tested on: HOP-62 NSCLC
# HS 578T breast = tested on: HS 578T breast
# HT29 colon = tested on: HT29 colon
# IGROV1 ovarian = tested on: IGROV1 ovarian
# K-562 leukemia = tested on: K-562 leukemia
# KM12 colon = tested on: KM12 colon
# LOX IMVI melanoma = tested on: LOX IMVI melanoma
# M14 melanoma = tested on: M14 melanoma
# MALME-3M melanoma = tested on: MALME-3M melanoma
# MCF7 breast = tested on: MCF7 breast
# MDA-MB-231 breast = tested on: MDA-MB-231 breast
# MDA-MB-435 = tested on: MDA-MB-435
# MOLT-4 leukemia = tested on: MOLT-4 leukemia
# NCI-H226 lung = tested on: NCI-H226 lung
# NCI-H23 lung = tested on: NCI-H23 lung
# NCI-H460 lung = tested on: NCI-H460 lung
# NCI-H522 lung = tested on: NCI-H522 lung
# NCI/ADR-RES ovarian = tested on: NCI/ADR-RES ovarian
# OVCAR-3 ovarian = tested on: OVCAR-3 ovarian
# OVCAR-4 ovarian = tested on: OVCAR-4 ovarian
# OVCAR-5 ovarian = tested on: OVCAR-5 ovarian
# OVCAR-8 ovarian = tested on: OVCAR-8 ovarian
# PC-3 prostate = tested on: PC-3 prostate
# RXF 393 renal = tested on: RXF 393 renal
# SF-268 CNS = tested on: SF-268 CNS
# SF-295 CNS = tested on: SF-295 CNS
# SF-539 CNS = tested on: SF-539 CNS
# SK-MEL-2 melanoma = tested on: SK-MEL-2 melanoma
# SK-MEL-28 melanoma = tested on: SK-MEL-28 melanoma
# SK-OV-3 ovarian = tested on: SK-OV-3 ovarian
# SN12C renal = tested on: SN12C renal
# SNB-19 CNS = tested on: SNB-19 CNS
# SNB-75 CNS = tested on: SNB-75 CNS
# SW-620 colon = tested on: SW-620 colon
# T-47D breast = tested on: T-47D breast
# TK-10 renal = tested on: TK-10 renal
# U251 CNS = tested on: U251 CNS
# UACC-257 melanoma = tested on: UACC-257 melanoma
# UACC-62 melanoma = tested on: UACC-62 melanoma
# UO-31 renal = tested on: UO-31 renal
# A498 renal = tested on: A498 renal
# RPMI-8226 leukemia = tested on: RPMI-8226 leukemia
# SK-MEL-5 melanoma = tested on: SK-MEL-5 melanoma
# SR leukemia = tested on: SR leukemia
structure (smiles),measurement,setting,value
Cc1cc(C(=O)CBr)c(CN2C(=O)c3ccccc3C2=O)c(=O)n1C,TGI,786-0 renal,> 100 µM
same,TGI,A549 NSCLC,44.7 µM
same,TGI,ACHN renal,25.6 µM
same,TGI,BT-549 breast,32.7 µM
same,TGI,CAKI-1 renal,47.8 µM
same,TGI,CCRF-CEM leukemia,6.25 µM
same,TGI,COLO 205 colon,47.9 µM
same,TGI,DU-145 prostate,30.5 µM
same,TGI,EKVX NSCLC,14.5 µM
same,TGI,HCC-2998 colon,59.7 µM
same,TGI,HCT-116 colon,> 100 µM
same,TGI,HCT-15 colon,34.9 µM
same,TGI,HL-60(TB) leukemia,25 µM
same,TGI,HOP-62 NSCLC,> 100 µM
same,TGI,HS 578T breast,45.6 µM
same,TGI,HT29 colon,> 100 µM
same,TGI,IGROV1 ovarian,64.2 µM
same,TGI,K-562 leukemia,20.6 µM
same,TGI,KM12 colon,40.1 µM
same,TGI,LOX IMVI melanoma,99.3 µM
same,TGI,M14 melanoma,> 100 µM
same,TGI,MALME-3M melanoma,36.8 µM
same,TGI,MCF7 breast,56 µM
same,TGI,MDA-MB-231 breast,40.2 µM
same,TGI,MDA-MB-435,43.6 µM
same,TGI,MOLT-4 leukemia,5.57 µM
same,TGI,NCI-H226 lung,> 100 µM
same,TGI,NCI-H23 lung,> 100 µM
same,TGI,NCI-H460 lung,76.6 µM
same,TGI,NCI-H522 lung,37.4 µM
same,TGI,NCI/ADR-RES ovarian,> 100 µM
same,TGI,OVCAR-3 ovarian,40.9 µM
same,TGI,OVCAR-4 ovarian,> 100 µM
same,TGI,OVCAR-5 ovarian,52.6 µM
same,TGI,OVCAR-8 ovarian,41.1 µM
same,TGI,PC-3 prostate,35.5 µM
same,TGI,RXF 393 renal,33.7 µM
same,TGI,SF-268 CNS,54.9 µM
same,TGI,SF-295 CNS,> 100 µM
same,TGI,SF-539 CNS,34.3 µM
same,TGI,SK-MEL-2 melanoma,61.7 µM
same,TGI,SK-MEL-28 melanoma,42.7 µM
same,TGI,SK-OV-3 ovarian,> 100 µM
same,TGI,SN12C renal,36 µM
same,TGI,SNB-19 CNS,93.2 µM
same,TGI,SNB-75 CNS,56.5 µM
same,TGI,SW-620 colon,23 µM
same,TGI,T-47D breast,74.4 µM
same,TGI,TK-10 renal,25.3 µM
same,TGI,U251 CNS,38 µM
same,TGI,UACC-257 melanoma,33.5 µM
same,TGI,UACC-62 melanoma,34.7 µM
same,TGI,UO-31 renal,41.6 µM
S=c1sc2c(s1)SCc1cccc(n1)CSc1sc(=S)sc1SCc1cccc(n1)CS2,TGI,786-0 renal,> 100 µM
same,TGI,A498 renal,> 100 µM
same,TGI,A549 NSCLC,> 100 µM
same,TGI,ACHN renal,> 100 µM
same,TGI,BT-549 breast,> 100 µM
same,TGI,CAKI-1 renal,> 100 µM
same,TGI,CCRF-CEM leukemia,> 100 µM
same,TGI,COLO 205 colon,> 100 µM
same,TGI,DU-145 prostate,> 100 µM
same,TGI,EKVX NSCLC,> 100 µM
same,TGI,HCC-2998 colon,> 100 µM
same,TGI,HCT-116 colon,> 100 µM
same,TGI,HCT-15 colon,> 100 µM
same,TGI,HL-60(TB) leukemia,> 100 µM
same,TGI,HOP-62 NSCLC,> 100 µM
same,TGI,HS 578T breast,> 100 µM
same,TGI,HT29 colon,> 100 µM
same,TGI,IGROV1 ovarian,> 100 µM
same,TGI,K-562 leukemia,> 100 µM
same,TGI,KM12 colon,> 100 µM
same,TGI,LOX IMVI melanoma,> 100 µM
same,TGI,M14 melanoma,> 100 µM
same,TGI,MALME-3M melanoma,> 100 µM
same,TGI,MDA-MB-231 breast,> 100 µM
same,TGI,MDA-MB-435,> 100 µM
same,TGI,MOLT-4 leukemia,> 100 µM
same,TGI,NCI-H226 lung,> 100 µM
same,TGI,NCI-H23 lung,> 100 µM
same,TGI,NCI-H460 lung,> 100 µM
same,TGI,NCI-H522 lung,> 100 µM
same,TGI,NCI/ADR-RES ovarian,> 100 µM
same,TGI,OVCAR-3 ovarian,> 100 µM
same,TGI,OVCAR-5 ovarian,> 100 µM
same,TGI,OVCAR-8 ovarian,> 100 µM
same,TGI,PC-3 prostate,> 100 µM
same,TGI,RPMI-8226 leukemia,> 100 µM
same,TGI,SF-268 CNS,> 100 µM
same,TGI,SF-295 CNS,> 100 µM
same,TGI,SF-539 CNS,> 100 µM
same,TGI,SK-MEL-2 melanoma,> 100 µM
same,TGI,SK-MEL-28 melanoma,> 100 µM
same,TGI,SK-MEL-5 melanoma,> 100 µM
same,TGI,SK-OV-3 ovarian,> 100 µM
same,TGI,SN12C renal,> 100 µM
same,TGI,SNB-19 CNS,> 100 µM
same,TGI,SNB-75 CNS,> 100 µM
same,TGI,SR leukemia,> 100 µM
same,TGI,SW-620 colon,> 100 µM
same,TGI,T-47D breast,> 100 µM
same,TGI,TK-10 renal,> 100 µM
same,TGI,U251 CNS,> 100 µM
same,TGI,UACC-257 melanoma,> 100 µM
same,TGI,UACC-62 melanoma,> 100 µM
same,TGI,UO-31 renal,> 100 µM
